Reference: patent US9586963B2 (GENFIT, priority 2011, dated 2017)

How the values were obtained:
[1] = molecular target: T1, Rev-Erb alpha (Homo sapiens, UniProt P20393); experiment: M2H (mammalian two-hybrid) cellular activation assay of Rev-Erb alpha; format: cell-based; conditions: M2H assay, HEK293 cells, Gal4-Rev-Erb alpha / VP16-NCoR, luciferase reporter
T1 sequence (P20393 284-614 limits assumed): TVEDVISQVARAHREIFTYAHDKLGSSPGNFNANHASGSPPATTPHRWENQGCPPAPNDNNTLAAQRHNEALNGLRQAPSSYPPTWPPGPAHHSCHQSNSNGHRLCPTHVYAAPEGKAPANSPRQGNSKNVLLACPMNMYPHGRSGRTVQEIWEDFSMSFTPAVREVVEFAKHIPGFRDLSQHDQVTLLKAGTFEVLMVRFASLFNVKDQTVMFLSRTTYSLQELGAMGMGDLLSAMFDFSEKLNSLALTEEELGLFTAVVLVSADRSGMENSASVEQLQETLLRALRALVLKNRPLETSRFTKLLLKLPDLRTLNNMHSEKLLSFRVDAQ
Outline: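 Six-point dose-response, 18 h, 37 °C, serum-free, in HEK293 cells carrying a Gal4-RE luciferase reporter with Gal4-Rev-Erb alpha or beta plus VP16-NCoR (corepressor interaction readout). EC50 and TOP activation (%) derived from luminescence across four experiments.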

[2] = molecular target: T1, Rev-Erb alpha; experiment: TR-FRET (HTRF) assay of Rev-Erb alpha LBD with NCoR peptide ID1; format: biochemical; conditions: cell-free, Rev-Erb alpha LBD His 20 nM, NCoR ID1 30 nM
Description: Recombinant histidine-tagged Rev-Erb alpha ligand binding domain (LBD; SEQ ID NO: 1) and NCoR peptide ID1 (SEQ ID NO: 2) were tagged with fluorophores. Histidine-tagged Rev-Erb alpha LBD protein was set up in a one to one ratio of 20 nM of His D2 (Cis Bio International 61HSDLB). The NCoR peptide (ID1) was prepared in-house. We used a concentration of 30 nM NCoR and 10 nM Terbium-labeled streptavidin (Cis Bio International 610SATLB).
The buffer for this assay comprised PBS pH 7.2, NaH2P04 at 4 g/L, Na2HP04 at 27 g/L and NaCl at 9 g/l in deionized water. Before using the buffer in the assay, a mixture comprising 1 mM of DTT, 2 mM of CHAPS, 1 mM of EDTA and 0.1% BSA fatty acid free was added to the appropriate amount of buffer. The protein mixture comprising recombinant Rev-Erb alpha LBD His (20 nM), the NCoR ID1 (30 nM) and their respective fluorophores were added to each well of a 384-well plate in a volume 18 μl. The compounds to analyze were diluted in PBS 10% DMSO and was added in a volume of 2 μL in a well. The final mixture volume was 20 μL and the mixture was allowed equilibrate for 2 hours at room temperature. Fluorescence intensity was then counted on the TECAN Genios Pro as a ratio of the fluorescence measured at 665 nm and that measured at 620 nm obtained in the absence of the compound (buffer only) or with the compound. Four experiments were carried out for each compound.
Each compound has been tested at 6 different concentrations to depict a dose-effect enabling the measure of biochemical parameters such as EC50 and TOP activation (%).
The Homogenous Time Resolved Fluorescence (HTRF) assay allows studying the ability of compounds according to the invention to activate Rev-Erb alpha and thus modulate the interaction with its corepressor. The molecular interactions between these bio-molecules are assessed in a cell-free assay by coupling each partner with a fluorescent label and detecting the level of energy transfer. This energy transfer occurs when the distance between the donor (SA Terbium complex) and the acceptor (D2) is small enough.
The ability of compounds according to the invention of activating Rev-Erb alpha was assessed in the described acellular assay. EC50 and TOP activation were measured.

[3] = molecular target: T2, Rev-Erb beta (Homo sapiens, UniProt Q14995); experiment: M2H (mammalian two-hybrid) cellular activation assay of Rev-Erb beta; format: cell-based; conditions: HEK293 cells, Gal4-Rev-Erb beta / VP16-NCoR, luciferase reporter
T2 sequence (Q14995 369-579 limits assumed): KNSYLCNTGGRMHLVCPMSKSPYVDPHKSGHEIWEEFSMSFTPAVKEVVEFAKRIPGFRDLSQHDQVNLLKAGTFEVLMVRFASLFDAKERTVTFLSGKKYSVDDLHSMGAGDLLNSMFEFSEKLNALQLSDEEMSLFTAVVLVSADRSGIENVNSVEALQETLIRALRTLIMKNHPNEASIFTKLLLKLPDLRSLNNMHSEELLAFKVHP
Description: In this system, Rev-Erb alpha or Rev-Erb beta is expressed as a fusion to the Gal4 DNA-binding domain and the cofactor NCoR is expressed as a fusion to the activation domain of the Herpes Simplex Virus tegument protein VP16. These fusion proteins were included in plasmids at a concentration of 1 μg/μL. The pBS-SK+ vector was added to the preparation to adjust the DNA quantity to a fixed value for each condition.
The transfection mix (Jet-PEI protocol, Polyplus transfection) comprised: • 3 mL of Jet PEI Mix (180 μL Jet-Pei and NaCl at 150 mM) and • 3 mL of the DNA Mix or of the DNA Mix control (wherein the Gal4-Rev-Erb alpha plasmid was replaced by a pGal4phi plasmid).
DNA Mix comprised 1.2 mL of DNA and 1.8 mL of NaCl at 150 mM with, in a T225 flask: • 90 ng of Gal4-Rev-Erb alpha, or 90 ng of Gal4-Rev-Erb beta, • 4500 ng of VP16-NCoR, • 27000 ng of Gal4-RE and • 13410 ng of pBS-SK+. Cells
HEK293 cells were cultured in DMEM (Invitrogen 41965) comprising 10% FBS, P/S, 1% glutamine, 1% pyruvate (Invitrogen 11360) and 1% amino acids (Invitrogen 11140). Cells were then batch co-transfected with plasmid vectors (described in the table above) using as Jet-PEI as reagent (Polyplus) following the protocol specified below.
The 6 mL-transfection mix was transferred in a T225 flask. HEK293 cells were then added at a concentration of 12 Millions of cells for 54 mL of medium (DMEM comprising 10% FBS and 1% P/S). Cells incubated over-night at 37° C. and under 5% CO2.
This cell-based assay is performed using 384-well Greiner white plates (Reference 781080). After the incubation, cells were rinsed with PBS, trypsinized, centrifuged and resuspended in free-serum DMEM without phenol red (Invitrogen 31053). Cells were counted and adjusted to 0.5 Million per mL and plated at a concentration of 10,000 cells in 20 μL per well. They were incubated a minimum of 4 hours at 37° C. under 5% CO2. Cells were treated with 20 μL of the compound to analyze (concentration of 2× diluted in DMEM without FBS containing a maximum of 1% DMSO) and incubated over-night (18 hours, 37° C. and 5% CO2). Each compound has been tested at 6 different concentrations to depict a dose-effect allowing the measure of biochemical parameters such as EC50 and TOP activation (%).
Cells were incubated 30 minutes with 40 μL/well of Steady Glow (Promega) and luminescence was read with TECAN Genios Pro (100 ms/w). Four experiments were carried out for each compound.
Each compound has been tested at 6 different concentrations to depict a dose-effect allowing the measure of biochemical parameters such as EC50 and TOP activation (%).
The mammalian two-hybrid system (M2H) assay consists herein in studying the ability of compounds according to the invention to activate Rev-Erbalpha in cells and thus modulate the interaction with its corepressor. The interaction of the two proteins is assessed with the help of the Luciferase reporter gene. HEK293 cells were transfected with two gene constructions: Gal4-RE VP16-NCoR and Gal4-Rev-Erbalpha or with Gal4-RE, sVP16-NCoR and Gal4-Rev-Erb beta.
The ability of compounds according to the invention of activating Rev-Erbalpha alpha or Rev-Erb beta was assessed in the described cell-based assay. EC50 and TOP activation (%) were measured.

Compound	EC50 [1] [nM]	EC50 [2] [nM]	melting point [°C]	EC50 [3] [nM]
FC(F)(F)c1nnc2ccc(Oc3cccc(Cc4ccccc4)c3)nn12 [Cpd.3-5, 6-(3-benzylphenoxy)-3-(trifluoromethyl)-[1,2,4]triazolo[4,3-b]pyridazine]	100 to 1000	100 to 1000	115	
Clc1nnc2ccc(Oc3ccccc3Cc3ccccc3)nn12 [Cpd.4-4, 6-(2-benzylphenoxy)-3-chloro-[1,2,4]triazolo[4,3-b]pyridazine]	100 to 1000	100 to 1000	113.7	
COc1ccc(-c2ccccc2)c(Oc2ccc3nnc(Cl)n3n2)c1 [Cpd.4-6, 6-(4-methoxy-biphenyl-2-yloxy)-3-chloro-[1,2,4]triazolo[4,3-b]pyridazine]	100 to 1000	< 100	128.1	
Fc1ccc(-c2ccccc2)c(Oc2ccc3nnc(Cl)n3n2)c1 [Cpd.4-7, 6-(4-fluoro-biphenyl-2-yloxy)-3-chloro-[1,2,4]triazolo[4,3-b]pyridazine]	100 to 1000	< 100	180.7	
O=C(c1ccccc1)c1ccccc1Oc1ccc2nnc(C(F)(F)F)n2n1 [Cpd.4-8, (2-(3-(trifluoromethyl)-[1,2,4]triazolo[4,3-b]pyridazin-6-yloxy)phenyl)(phenyl)methanone]	1000 to 6000	100 to 1000	112.1	
Clc1nnc2ccc(Cc3ccccc3-c3ccccc3)nn12 [Cpd.4-9, 6-(biphenyl-2-ylmethyl)-3-chloro-[1,2,4]triazolo[4,3-b]pyridazine]	1000 to 6000	100 to 1000		
Fc1ccc(-c2ccccc2Oc2ccc3nnc(Cl)n3n2)cc1 [Cpd.4-10, 6-(4′-fluoro-biphenyl-2-yloxy)-3-chloro-[1,2,4]triazolo[4,3-b]pyridazine]	100 to 1000	< 100	144.4	
O=C(c1ccccc1)c1ccccc1Oc1ccc2nnc(Cl)n2n1 [Cpd.4-11, (2-(3-chloro-[1,2,4]triazolo[4,3-b]pyridazin-6-yloxy)phenyl)(phenyl)methanone]	1000 to 6000	1100 to 6000	137.9	
FC(F)(F)c1nnc2ccc(Cc3ccccc3-c3ccccc3)nn12 [Cpd.4-12, 6-(biphenyl-2-ylmethyl)-3-(trifluoromethyl)-[1,2,4]triazolo[4,3-b]pyridazine]	1000 to 6000	1100 to 6000	117.4	
CN(C)c1ccc(-c2ccccc2)c(Oc2ccc3nnc(Cl)n3n2)c1 [Cpd.4-45, 3-chloro-6-(4-N,N-dimethylamino-biphenyl-2-yloxy)-[1,2,4]triazolo[4,3-b]pyridazine]	< 100			100 to 1000

Continued, values first:

EC50 [1] [nM]	EC50 [2] [nM]	melting point [°C]	EC50 [3] [nM]	Compound
100 to 1000	100 to 1000			Clc1nnc2ccc(Oc3cccc(-c4ccccc4)c3)nn12 [Cpd.3-1, 6-(biphenyl-3-yloxy)-3-chloro-[1,2,4]triazolo[4,3-b]pyridazine]
100 to 1000	< 100	148		O=C(c1ccccc1)c1cccc(Oc2ccc3nnc(Cl)n3n2)c1 [Cpd.3-2, (3-(3-chloro-[1,2,4]triazolo[4,3-b]pyridazin-6-yloxy)phenyl)(phenyl)methanone]
100 to 1000	1100 to 6000	140.2		FC(F)(F)c1nnc2ccc(Oc3cccc(-c4ccccc4)c3)nn12 [Cpd.3-3, 6-(biphenyl-3-yloxy)-3-(trifluoromethyl)-[1,2,4]triazolo[4,3-b]pyridazine]
100 to 1000	100 to 1000	94.4		O=C(c1ccccc1)c1cccc(Oc2ccc3nnc(C(F)(F)F)n3n2)c1 [Cpd.3-4, (3-(3-(trifluoromethyl)-[1,2,4]triazolo[4,3-b]pyridazin-6-yloxy)phenyl)(phenyl)methanone]
< 100	1100 to 6000	163		Clc1nnc2ccc(Oc3ccccc3-c3ccccc3)nn12 [Cpd.4-1, 6-(biphenyl-2-yloxy)-3-chloro-[1,2,4]triazolo[4,3-b]pyridazine]
100 to 1000	< 100	97.3		Fc1cccc(-c2ccccc2Oc2ccc3nnc(Cl)n3n2)c1 [Cpd.4-3, 6-(3′-fluoro-biphenyl-2-yloxy)-3-chloro-[1,2,4]triazolo[4,3-b]pyridazine]
1000 to 6000	100 to 1000	128.8		FC(F)(F)c1nnc2ccc(Oc3ccccc3Cc3ccccc3)nn12 [Cpd.4-5, 6-(2-benzylphenoxy)-3-(trifluoromethyl)-[1,2,4]triazolo[4,3-b]pyridazine]
< 100		147.5	100 to 1000	Cc1cc(Oc2ccc3nnc(Cl)n3n2)c(-c2ccccc2)cc1C [Cpd.4-18, 6-(4,5-dimethyl-biphenyl-2-yloxy)-3-chloro-[1,2,4]triazolo[4,3-b]pyridazine]
